Laboratory results taken from patent publication EP0429522B1, “PHOSPHOSUGAR-BASED ANTI-INFLAMMATORY AND/OR IMMUNOSUPPRESSIVE DRUGS” (THE AUSTRALIAN NATIONAL UNIVERSITY, priority 1988, dated 1990).

Experiments:
[1] = test system: Delayed-Type Hypersensitivity (DTH); assay: Delayed-type hypersensitivity (DTH) footpad swelling after sheep red blood cell challenge; format: in vivo, C57Bl mice; details: 24 hours after challenge; 0.15mg i/p per injection, 7 injections at approx. 3½ hour intervals
Method: C57Bl mice were sensitised by i.v. injection 10⁵ of washed sheep red blood cells. 5 days later they were challenged in the right hind footpad with SRBC. Each mouse was given a 0.25ml injection i/p at the same time of either saline, mannose-6-phosphate or the 1,2,3,4-tetraacetate of mannose-6-phosphate and all injections were repeated a further 6 times at approx. 3½ hour intervals. The dose in each injection of mannose-6- phosphate was 0.15mg and of 1,2,3,4-tetra-O-acetyl derivative of mannose-6-phosphate was also 0.15mg. At 24 hours after challenge the DTH swelling was measured.

[2] = test system: Adoptively Transferred EAE; assay: Inhibition of adoptively transferred EAE (clinical signs), phosphosugar delivered by subcutaneous mini-osmotic pumps; format: in vivo, Lewis rats; details: for Disease Severity (%Control): product of mean clinical score and mean length disease; for inhibition of EAE (result in words): summary of Tables I, III and IV
Method: In this Example, a number of phosphosugars and one phospho-polysaccharide were tested for their ability to inhibit development of EAE in rats. (All phosphosugars tested are commercially available and were obtained from Sigma Chemical Co., St. Louis, MO, U.S.A.). Experimental details are included in the footnotes to the Tables setting out the test results.
Thus, although 7/10 animals treated with mannose-6-phosphate developed some clinical signs of disease (Table III) the severity of these disease symptoms was extremely mild compared with untreated animals, i.e., <10% disease severity of controls when clinical scores and duration of disease are examined. In this sense, the mannose-6-phosphate data in Tables I and III are almost identical. […]
In these experiments, details of which were as in Table I, the number of cells transferred was 25x10⁶/rat, while the dose of compound administered was 10mg/rat delivered over a 7 day period by mini-osmotic pumps, commencing on day 3 after cell transfer.

EAE = assay: Histological analysis of spinal cord inflammatory lesions in EAE rats; format: in vivo; details: for No.Lesions: lower thoracic-upper lumbar spinal cord sections, treated as in Table I; for No.Lesions / Lesions/section: 9 days after cell transfer; for Lesions/section: spinal cord sections
Description: Such data are consistent with the view that the sugars are inhibiting entry of leukocytes into the CNS.

[3] = test system: Passive Adjuvant Arthritis; assay: Suppression of passive adjuvant arthritis (foot size); format: in vivo, (DA x Lew)Fl rats; details: 6mg/rat/day by miniosmotic pumps for 14 days
Method: (DA x Lew)Fl rats were immunized with M.butyricum in light mineral oil given in each foot. Ten days later spleens were removed and incubated as single cell suspension tissue culture medium in + 5µg/ml ConA for 75 hrs. Cells were harvested, washed and transferred i.v. at 65 x 10⁶ cells/rat into (DA x Lew)F recipients.
Treated rats were implanted on the day they received cells with miniosmotic pumps which delivered 6mg/rat/day of mannose-6- phosphate for 14 days. Control rats were sham operated. The results are shown in Table VII as % of pre-cell injection foot size. {Average for group; n=4 (mannose-6-phosphate); n=6 (control)}.

[4] = Table III, experimental details as in Table I
[5] = Table II, dose 10 mg over 7 days
[6] = Table II, dose 20 mg over 7 days
[7] = Table II, dose 40 mg over 7 days

## 1,2,3,4-tetra-O-acetyl derivative of mannose-6-phosphate
[1]
  reduction of DTH swelling as compared with the saline controls: 91.5%

## 6-phospho-mannose-α(1-3)-{mannose-α-(1-3)}₂-mannose-α-(1-2)-mannose [Pentasaccharide]
[2]; Table VI, 25x10⁶ cells/rat, 10mg/rat over 7 days by mini-osmotic pumps from day 3
  EAE/Total: 1/5

## OC[C@H]1OC(O)[C@@H](O)[C@@H](O)[C@@H]1O (stereo partly drawn) [D-mannose, reference compound]
[2]; [4]
  Mean Clinical Score: 2.9
  Mean Day Onset: 5.2
  Mean Length Disease: 4.4 days
  No.with EAE/Total: 5/5
[2]; Table III
  Disease Severity (%Control): 84.5%
[2]
  inhibition of EAE (result in words): little or no effect on disease progression

## O=C(COP(=O)(O)O)[C@@H](O)[C@H](O)[C@H](O)COP(=O)(O)O [Fructose-1,6-diphosphate, fructose-1,6-diphosphate]
[2]; [4]
  Mean Clinical Score: 2.4
  Mean Day Onset: 5.4
  Mean Length Disease: 3.4 days
  No.with EAE/Total: 5/5
[2]; Table III
  Disease Severity (%Control): 54.0%
[2]
  inhibition of EAE (result in words): partially inhibitory

## O=C(COP(=O)(O)O)[C@@H](O)[C@H](O)[C@H](O)CO [Fructose-1-phosphate, fructose-1-phosphate]
[2]; [4]
  Mean Clinical Score: 1.2
  Mean Day Onset: 5.5
  Mean Length Disease: 1.6 days
  No.with EAE/Total: 3/5
[2]; Table III
  Disease Severity (%Control): 12.6%
[2]
  inhibition of EAE (result in words): as effective as mannose-6-phosphate at inhibiting disease

## O=C(CO)[C@@H](O)[C@H](O)[C@H](O)COP(=O)(O)O [Fructose-6-phosphate]
[2]; [4]
  Mean Clinical Score: 1.6
  Mean Day Onset: 6.0
  Mean Length Disease: 2.4 days
  No.with EAE/Total: 4/5
[2]; Table III
  Disease Severity (%Control): 25.4%
[2]
  inhibition of EAE (result in words): comparatively effective inhibitor of EAE

## O=P(O)(O)OC[C@H]1OC(O)[C@H](O)[C@@H](O)[C@H]1O (some centres unmarked) [Galactose-6-phosphate, galactose-6-phosphate]
[2]; [4]
  Mean Clinical Score: 2.0
  Mean Day Onset: 5.2
  Mean Length Disease: 3.0 days
  No.with EAE/Total: 5/5
[2]; Table III
  Disease Severity (%Control): 40.5%
[2]
  inhibition of EAE (result in words): partially inhibitory

## O=P(O)(O)OC[C@H]1OC(O)[C@H](O)[C@@H](O)[C@@H]1O (some centres unmarked) [Glucose-6-phosphate, glucose-6-phosphate]
[2]; [4]
  Mean Clinical Score: 2.0
  Mean Day Onset: 5.4
  Mean Length Disease: 3.8 days
  No.with EAE/Total: 5/5
[2]; Table III
  Disease Severity (%Control): 50.3%
[2]
  inhibition of EAE (result in words): partially inhibitory

## O=P(O)(O)OC[C@H]1OC(O)[C@@H](O)[C@@H](O)[C@@H]1O (some centres unmarked) [Mannose-6-phosphate, mannose-6-phosphate]
[1]
  reduction of DTH swelling as compared with the saline controls: 52.5%
EAE; text summary of Table V
  CNS lesions (result in words): No lesions were detected
EAE; treated rat 1
  No.Lesions: 0
  Lesions/section: 0
EAE; treated rat 2
  No.Lesions: 0
  Lesions/section: 0
[2]; Table I, 40 mg/rat over 7 days
  Mean Length Disease: 0 days
[2]; Table I, 40 mg/rat over 7 days, s.c. pumps from day 3
  Mean Day Onset: 0
[2]; Table I, 40 mg/rat over 7 days, score 0-5
  Mean Clinical Score: 0
[2]; Table I, 30 x 10⁶ ConA activated EAE effector cells, 40 mg/rat over 7 days, s.c. pumps from day 3
  No.with EAE/Total: 0/8
[2]; [5]
  Mean Clinical Score: 1.8
  Mean Day Onset: 5.0
  Mean Length Disease: 3.3
  No.with EAE/Total: 4/4
[2]; Table II, dose 10 mg over 7 days, listed as Mannose-6-Phosphate
  Disease Severity (%Control): 37.7%
[2]; Table II, dose 10 mg over 7 days, listed as mannose-6-phosphate
  Disease Severity (%Control): 37.7%
[2]; [6]
  Mean Clinical Score: 1.5
  Mean Day Onset: 5.0
  Mean Length Disease: 3.0
  No.with EAE/Total: 4/4
  Disease Severity (%Control): 28.6%
[2]; [7]
  Mean Clinical Score: 0.3
  Mean Day Onset: 5.0
  Mean Length Disease: 0.7
  No.with EAE/Total: 1/3
  Disease Severity (%Control): 1.7%
[2]; [4]
  Mean Clinical Score: 0.9
  Mean Day Onset: 6.0
  Mean Length Disease: 1.5 days
  No.with EAE/Total: 7/10
[2]; Table III
  Disease Severity (%Control): 8.9%
[2]; Table III, listed as mannose-6-phosphate
  Disease Severity (%Control): < 10%
[2]
  inhibition of EAE (result in words): totally inhibited development of disease
[3]; Day 4, group average n=4
  % of pre-cell injection foot size: 97.3%
[3]; Day 6, n=4
  % of pre-cell injection foot size: 105.8%
[3]; Day 7, n=4
  % of pre-cell injection foot size: 102.8%
[3]; Day 9, n=4
  % of pre-cell injection foot size: 108.4%
[3]; Day 11, n=4
  % of pre-cell injection foot size: 107.6%
[3]; Day 14, n=4
  % of pre-cell injection foot size: 117.4%

## Glucose-1-phosphate
[2]; [4]
  Mean Clinical Score: 3.0
  Mean Day Onset: 5.2
  Mean Length Disease: 3.8 days
  No.with EAE/Total: 5/5
[2]; Table III
  Disease Severity (%Control): 75.5%
[2]
  inhibition of EAE (result in words): little or no effect on disease progression
